Test system: male gypsy moth antenna
Experiment: Coupled gas chromatographic-electroantennographic detection (GC-EAD)
Set-up: species or system Lymantria dispar
Conditions: EAD peak size and shape (sharp/broad)
Source text: In GC-EAD assays, the analyte is processed by gas chromatography (GC). The column effluent is split, such that molecules of each chromatographic peak arrive simultaneously at the flame ionization detector of the GC and at an anectomized but otherwise intact insect antenna as the biological detector. This procedure detects specific compounds in the analyte that elicit an electrical potential from the antenna.
For GC-EAD recordings, an antenna was carefully dislodged from a male moth's head, and the antennal base placed into the opening of a glass capillary electrode (0.58 mm ID×65 mm length) (A-M Systems, Inc., Carlsborg, Wash., USA) filled with saline solution. The tip of the antenna was removed by spring microscissors (Fine Science Tools Inc., North Vancouver, British Columbia, Canada) and then placed into the opening of the recording electrode mounted on a portable micromanipulator and positioned in front of a constant stream of warm air (Praxair Canada Inc., Mississauga, Ontario, Canada) which delivered the GC column eluent. […] Identical retention times of compounds detected by the flame ionization detector of the GC and by the insect antenna allowed assignment of antennal responses to specific compounds in the eluent.

| SMILES | GC-EAD activity |
| --- | --- |
| CCOc1cccc(OCCC(C)C)c1 [3b{2,5}, 1-ethoxy-3-(3-methyl-butyloxy) benzene] | None |
| C=CCOc1ccccc1OCCC [3a{3,6}, 1-allyloxy-2-propoxybenzene] | ++ broad |
| C=CCOc1ccc(OCCC(C)C)cc1 [3c{5,6}, 1-allyloxy-4-isopentoxybenzene] | None |
| COc1ccccc1OCCC(C)C [3a{1,5}, 1-methoxy-2-(3-methyl-butoxy) benzene] | + broad |
| CCCOc1ccccc1OC [3a{1,3}, 1-methoxy-2-propoxy benzene] | + sharp |
| CCCCOc1cccc(OCCC)c1 [3b{3,4}, 1-butoxy-3-propoxy benzene] | None |
| CCCOc1cccc(OC)c1 [3b{1,3}, 1-methoxy-3-propoxy benzene] | Trace |
| C=CCOc1ccc(OCCCC)cc1 [3c{4,6}, 1-allyloxy-4-butoxy benzene] | None |
| C=CCOc1ccc(OC)cc1 [3c{1,6}, 1-allyloxy-4-methoxybenzene] | Trace |
| CCCCOc1ccccc1OC [3a{1,4}, 1-butoxy-2-methoxy benzene] | Trace |
| CCOc1ccccc1OCCC(C)C [3a{2,5}, 1-ethoxy-2-(3-methyl-butoxy) benzene] | ++ sharp |
| CCCOc1cccc(OCC)c1 [3b{2,3}, 1-ethoxy-3-propoxy benzene] | None |
| CCCCOc1cccc(OC)c1 [3b{1,4}, 1-butoxy-3-methoxy benzene] | None |
| CCOc1ccccc1OC [3a{1,2}, 1-ethoxy-2-methoxy benzene] | ++ sharp |
| CCCOc1cccc(OCCC(C)C)c1 [3b{3,5}, 1-(3-methyl-butyloxy)-3-propoxy benzene] | None |
| C=CCOc1ccccc1OCCCC [3a{4,6}, 1-allyloxy-2-butoxybenzene] | ++ broad |
| CCOc1cccc(OC)c1 [3b{1,2}, 1-ethoxy-3-methoxy benzene] | Trace |
| COc1cccc(OCCC(C)C)c1 [3b{1,5}, 1-methoxy-3-(3-methyl-butyloxy) benzene] | None |
| C=CCOc1ccccc1OCCC(C)C [3a{5,6}, 1-allyloxy-2-isopentoxybenzene] | + broad |
| CCCCOc1ccccc1OCC [3a{2,4}, 1-ethoxy-2-butoxy benzene] | ++ sharp |
| C=CCOc1ccccc1OC [3a{1,6}, 1-allyloxy-2-methoxy benzene] | + sharp |
| CCCCOc1cccc(OCC)c1 [3b{2,4}, 1-butoxy-3-ethoxy benzene] | None |
| CCCCOc1cccc(OCCC(C)C)c1 [3b{4,5}, 1-butoxy-3-(3-methyl-butyloxy) benzene] | None |
| C=CCOc1ccccc1OCC [3a{2,6}, 1-allyloxy-2-ethoxy benzene] | + broad |
| CCCOc1ccccc1OCC [3a{2,3}, 1-ethoxy-2-propoxy benzene] | + sharp |
| CCCCOc1ccccc1OCCC [3a{3,4}, 1-butoxy-2-propoxy benzene] | ++ sharp |
| CCCOc1ccccc1OCCC(C)C [3a{3,5}, 1-(3-methyl-butoxy)-2-propoxy benzene] | + broad |
| C=CCOc1ccc(OCC)cc1 [3c{2,6}, 1-allyloxy-4-ethoxybenzene] | Trace |
| CCCCOc1ccccc1OCCC(C)C [3a{4,5}, 1-butoxy-2-(3-methyl-butoxy) benzene] | + broad |

Same assay, conditions: male gypsy moth antenna; starting phenols 4, diethers 5 and dihydropyrans 6c from Claisen rearrangement chemistry

| SMILES | GC-EAD activity |
| --- | --- |
| C=CCc1cccc(OCCCC)c1O [4a{4}, 2-allyl-6-butoxy phenol] | Trace |
| CCCOc1ccc2c(c1)CC(C)O2 (stereo not drawn) [6c{3}, 5-propoxy-2-methyl-2,3-dihydro benzofuran] | Trace |
| C=CCc1cccc(OCCC)c1OCCC(C)C [5a{5, 3}] | None |
| C=CCc1cccc(OCC)c1OCCC [5a{3, 2}] | + broad |
| C=CCc1cccc(OCCCC)c1OCCC(C)C [5a{5, 4}] | None |
| C=CCc1cccc(OCC)c1O [4a{2}, 2-allyl-6-ethoxy phenol] | + sharp |
| C=CCc1cc(OCCC(C)C)ccc1O [4c{5}, 2-allyl-4-(3-methyl-butoxy) phenol] | None |
| C=CCc1cc(OCCCC)ccc1O [4c{4}, 2-allyl-4-butoxy phenol] | None |
| C=CCc1cc(OC)ccc1O [4c{1}, 2-allyl-4-methoxy phenol] | ++ sharp |
| C=CCc1cccc(OCCC)c1OCCCC [5a{4, 3}] | None |
| C=CCc1cccc(OC)c1OCCC [5a{3, 1}] | + broad |
| C=CCc1cc(OCCC)ccc1O [4c{3}, 2-allyl-4-propoxy phenol] | Trace |
| C=CCc1cccc(OC)c1OCC [5a{2, 1}] | Trace |
| C=CCc1cccc(OC)c1O [4a{1}, 2-allyl-6-methoxy phenol] | ++ sharp |
| CCOc1ccc2c(c1)CC(C)O2 (stereo not drawn) [6c{2}, 5-ethoxy-2-methyl-2,3-dihydro benzofuran] | Trace |
| C=CCc1cc(OCC)ccc1O [4c{2}, 2-allyl-4-ethoxy phenol] | + sharp |
| C=CCOc1cccc(CC=C)c1OCCC(C)C [5a{5, 6}] | None |
| C=CCc1cccc(OCCC(C)C)c1O [4a{5}, 2-allyl-6-(3-methyl-butoxy) phenol] | Trace |
| CCCCOc1ccc2c(c1)CC(C)O2 (stereo not drawn) [6c{4}, 5-butoxy-2-methyl-2,3-dihydro benzofuran] | None |
| C=CCc1cccc(OC)c1OCCC(C)C [5a{5, 1}] | Trace |
| C=CCc1cccc(OCCC)c1O [4a{3}, 2-allyl-6-propoxy phenol] | + broad |
| C=CCc1cccc(OC)c1OCCCC [5a{4, 1}] | None |
| C=CCc1cccc(OCC)c1OCCC(C)C [5a{5, 2}] | None |
| COc1ccc2c(c1)CC(C)O2 (stereo not drawn) [6c{1}, 5-methoxy-2-methyl-2,3-dihydro benzofuran] | + sharp |
| CC(C)CCOc1ccc2c(c1)CC(C)O2 (stereo not drawn) [6c{5}, 5-(3-methyl-butoxy)-2-methyl-2,3-dihydro benzofuran] | None |

Reference: US9497963B2, “Methods and compositions for control of gypsy moth, Lymantria dispar” (Simon Fraser University, priority 2008, dated 2016)
